The values below come from US20010018051A1, “Inhibition of allograft and concordant xenograft rejection” (priority 1990, published 2001).

One data set concerns hamster heart xenograft. The data set is described as follows: hamster heart xenograft survival in rats. In kind it is in vivo, rat. The conditions noted are these: hamster heart in DA rats; i.m. on alternate days from time of transplantation (cyclosporin A 20 mg/kg, cobra venom factor 0.4 mg/kg).
The format of data set [1] is in vivo. The conditions noted are these: doses of 2 mg/kg. The text has this: (§1) The minimum dosage of cobra venom factor is species dependent and can readily be determined by the CH50 assay. […] Effective and non-toxic dosages of other complement inhibitors can also readily be determined by those skilled in the art, for example, using the CH50 assay.
The subject of a further data set is complement activity. The data set is described as follows: onset and duration of cobra venom factor activity after intramuscular administration. In kind it is in vivo. The procedure:
as §1
Cobra venom factor takes about 6 hours for its initial activity to take effect after intramuscular administration. Once the initial activity is observed, it can last for more than 1 day, for example 2 days, and so daily administration of cobra venom factor may not be necessary. In fact, it is preferred to administer cobra venom factor on alternate days, in which case the preferred daily dosages given above will be doubled on the day of administration.

Another data set has as its system rabbit kidney xenografts. The following applies: rabbit kidney into cats; cited from earlier work.

Description for hamster heart xenograft: All other cardiac vessels were ligated.
Injections were given on alternate days thereafter.

cobra venom factor: the “median graft survival rate” value with hamster heart xenograft was found to be 6 days. Moreover, the toxicity entry in data set [1] is listed as “do not appear to be toxic”. For the same compound, in the data set with complement activity, the “duration of activity once observed” value is reported as “more than 1 day” and the “time for initial activity to take effect” value is “about 6 hours”. The “prolongation in graft survival” value with rabbit kidney xenografts was “up to seven days”.
`CCCCC[C@H](O)/C=C/[C@@H]1[C@H]2C/C(=C/CCCC(=O)O)O[C@H]2C[C@H]1O` [prostacyclin]: in the data set with rabbit kidney xenografts, the “prevention of hyperacute rejection” value is recorded as “not prevented”.
Take `O=C(O)c1cc(=O)c2c(OCC(O)COc3cccc4oc(C(=O)O)cc(=O)c34)cccc2o1` [sodium chromoglycate]: in the data set on rabbit kidney xenografts, the “prevention of hyperacute rejection” value is listed as “not prevented”.
Turning to `CCOC(=O)[C@H](CCc1ccccc1)N[C@@H](C)C(=O)N1CCC[C@H]1C(=O)O` [enalapril], the “prevention of hyperacute rejection” value in the data set on rabbit kidney xenografts is on record as “not prevented”.
For `C[C@H](CS)C(=O)N1CCC[C@H]1C(=O)O` [captopril], the “prevention of hyperacute rejection” value in the data set with rabbit kidney xenografts is “not prevented”.
